Assay results: ChEMBL document CHEMBL3632605, “Structure-guided discovery of 2-aryl/pyridin-2-yl-1H-indole derivatives as potent and selective hepsin inhibitors” (Bioorg Med Chem Lett, 2015)
Converted amounts (≈) assume the structure as drawn.

How the values were obtained:
[1] = molecular target: Plasminogen (Homo sapiens) (UniProt P00747); assay: Inhibition of human plasmin at 5 uM by fluorescence based assay using pyroGlu-Phe-Lys-pNA.HCl as substrate
Coagulation factor X = Coagulation factor X (Bos taurus, UniProt P00743); assay: Inhibition of bovine factor 10a by fluorescence based assay using CH3OCO-D-CHA-Gly-Arg-pNA.AcoH as substrate
Sequence of Coagulation factor X (P00743 41-180 limits assumed): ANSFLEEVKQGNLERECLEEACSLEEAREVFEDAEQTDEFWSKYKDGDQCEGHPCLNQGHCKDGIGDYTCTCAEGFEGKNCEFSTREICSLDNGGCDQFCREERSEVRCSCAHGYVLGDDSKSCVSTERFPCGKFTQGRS
Sequence of Coagulation factor X (P00743 234-492 limits assumed): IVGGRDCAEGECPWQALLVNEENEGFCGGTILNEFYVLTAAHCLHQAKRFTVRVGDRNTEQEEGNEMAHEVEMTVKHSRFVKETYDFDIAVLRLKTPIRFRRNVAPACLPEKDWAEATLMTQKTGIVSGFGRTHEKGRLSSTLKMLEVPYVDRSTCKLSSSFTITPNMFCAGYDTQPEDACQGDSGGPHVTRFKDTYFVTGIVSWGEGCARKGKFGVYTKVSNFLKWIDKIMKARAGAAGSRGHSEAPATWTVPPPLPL

Serine protease hepsin = Serine protease hepsin (Homo sapiens, UniProt P05981); assay: Inhibition of human recombinant hepsin by fluorescence based assay using 65 uM BOC-Gln-Arg-Arg -AMC as substrate
Sequence of Serine protease hepsin (P05981 1-162 limits assumed): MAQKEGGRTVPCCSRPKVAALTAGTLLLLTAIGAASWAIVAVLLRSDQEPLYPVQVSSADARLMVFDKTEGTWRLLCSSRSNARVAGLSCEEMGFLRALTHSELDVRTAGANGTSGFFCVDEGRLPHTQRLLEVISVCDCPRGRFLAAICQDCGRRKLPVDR
Sequence of Serine protease hepsin (P05981 163-417 limits assumed): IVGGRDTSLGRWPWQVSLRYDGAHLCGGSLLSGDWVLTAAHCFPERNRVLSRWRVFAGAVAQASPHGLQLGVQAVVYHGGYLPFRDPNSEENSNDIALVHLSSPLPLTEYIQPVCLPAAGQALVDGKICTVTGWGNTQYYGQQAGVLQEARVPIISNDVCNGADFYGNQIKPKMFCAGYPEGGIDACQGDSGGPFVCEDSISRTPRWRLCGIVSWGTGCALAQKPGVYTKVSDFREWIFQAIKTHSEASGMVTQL

Prothrombin = Prothrombin (Homo sapiens, UniProt P00734); assay: Inhibition of human thrombin by fluorescence based assay using 100 uM Boc-Gln-Ala-Arg-7-amido-4-methyl coumarinhydrobromide as substrate
[2] = molecular target: T1, Suppressor of tumorigenicity 14 protein (Homo sapiens, UniProt Q9Y5Y6); assay: Inhibition of human recombinant matriptase by fluorescence based assay using 20 uM Boc-Gln-Ala-Arg-7-amido-4-methyl coumarinhydrobromide as substrate
T1 sequence (Q9Y5Y6 whole entry): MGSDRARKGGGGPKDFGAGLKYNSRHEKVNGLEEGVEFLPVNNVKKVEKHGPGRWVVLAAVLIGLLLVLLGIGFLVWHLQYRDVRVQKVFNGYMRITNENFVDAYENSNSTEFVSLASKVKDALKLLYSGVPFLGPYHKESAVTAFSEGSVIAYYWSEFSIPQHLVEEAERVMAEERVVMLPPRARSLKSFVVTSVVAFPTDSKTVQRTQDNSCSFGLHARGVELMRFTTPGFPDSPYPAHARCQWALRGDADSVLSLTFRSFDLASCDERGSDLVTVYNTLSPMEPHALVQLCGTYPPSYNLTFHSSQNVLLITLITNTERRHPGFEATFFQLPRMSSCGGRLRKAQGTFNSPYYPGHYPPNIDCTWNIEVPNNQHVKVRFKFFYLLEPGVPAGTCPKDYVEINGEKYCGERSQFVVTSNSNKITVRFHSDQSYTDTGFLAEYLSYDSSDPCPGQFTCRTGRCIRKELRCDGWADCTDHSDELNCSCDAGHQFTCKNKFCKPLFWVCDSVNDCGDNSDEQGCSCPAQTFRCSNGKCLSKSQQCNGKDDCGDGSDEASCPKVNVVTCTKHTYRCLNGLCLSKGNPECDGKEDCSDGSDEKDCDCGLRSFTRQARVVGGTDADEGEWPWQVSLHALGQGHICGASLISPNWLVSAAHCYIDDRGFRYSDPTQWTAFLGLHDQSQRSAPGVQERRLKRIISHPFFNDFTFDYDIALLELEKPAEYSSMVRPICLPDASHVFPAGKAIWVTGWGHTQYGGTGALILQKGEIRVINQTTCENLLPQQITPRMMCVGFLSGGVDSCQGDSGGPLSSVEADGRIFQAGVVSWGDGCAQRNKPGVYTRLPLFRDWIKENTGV

[3] = molecular target: Urokinase-type plasminogen activator (Homo sapiens, UniProt P00749); assay: Inhibition of human uPA by fluorescence based assay using L-PyroGlu-Gly-Arg-pNA.HCl as substrate
Trypsin = Trypsin (Homo sapiens, UniProt P07477+P07478+P35030); assay: Inhibition of human trypsin by fluorescence based assay using 25 uM Boc-Gln-Ala-Arg-7-amido-4-methyl coumarinhydrobromide as substrate; format: protein assay
[4] = Antinvasive activity in human LNCaP-C42B4 cells by matrigel assay; format: functional, cell-based
[5] = Antimigratory activity in human LNCaP-C42B4 cells by transwell-chamber assay; format: functional, cell-based
PC-3 [6] = assay: Antimigratory activity in human PC3 cells by transwell-chamber assay; format: functional, cell-based
[7] = Aqueous solubility of compound at pH 7.4 by HPLC-UV/Vis analysis; format: physicochemical; conditions: aqueous medium
[8] = Cytotoxicity against human LNCaP-C42B4 cells at 10 uM after 72 hrs by calcein AM assay; format: cell-based; conditions: lncap-c42b4, 72 h
[9] = Stability in mouse liver microsomes assessed as compound remaining at 1 uM after 40 mins by LC-MS/MS analysis; format: ADME; conditions: read-out: Stability
PC-3 [10] = assay: Cytotoxicity against human PC3 cells at 10 uM after 72 hrs by calcein AM assay; format: cell-based; conditions: pc-3, 72 h
[11] = Stability in mouse liver microsomes assessed as compound remaining at 1 uM after 20 mins by LC-MS/MS analysis; format: ADME; conditions: read-out: Stability
PC-3 [12] = assay: Antinvasive activity in human PC3 cells by matrigel assay; format: functional, cell-based

Sequence of Plasminogen (Homo sapiens) (P00747 97-580 limits assumed): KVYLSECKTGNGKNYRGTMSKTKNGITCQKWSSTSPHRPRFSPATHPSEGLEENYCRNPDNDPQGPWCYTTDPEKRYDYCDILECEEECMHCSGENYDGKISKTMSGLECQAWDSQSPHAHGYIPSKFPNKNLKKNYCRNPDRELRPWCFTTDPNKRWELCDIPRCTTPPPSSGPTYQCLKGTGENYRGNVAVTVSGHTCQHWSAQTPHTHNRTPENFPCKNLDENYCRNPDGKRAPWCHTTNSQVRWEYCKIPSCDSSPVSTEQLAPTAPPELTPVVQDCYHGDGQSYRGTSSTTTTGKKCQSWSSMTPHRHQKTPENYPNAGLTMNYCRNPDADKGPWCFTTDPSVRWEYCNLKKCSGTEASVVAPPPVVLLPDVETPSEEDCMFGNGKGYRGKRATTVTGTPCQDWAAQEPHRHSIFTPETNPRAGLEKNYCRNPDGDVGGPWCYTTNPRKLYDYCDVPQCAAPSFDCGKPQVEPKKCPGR
Sequence of Plasminogen (Homo sapiens) (P00747 581-810 limits assumed): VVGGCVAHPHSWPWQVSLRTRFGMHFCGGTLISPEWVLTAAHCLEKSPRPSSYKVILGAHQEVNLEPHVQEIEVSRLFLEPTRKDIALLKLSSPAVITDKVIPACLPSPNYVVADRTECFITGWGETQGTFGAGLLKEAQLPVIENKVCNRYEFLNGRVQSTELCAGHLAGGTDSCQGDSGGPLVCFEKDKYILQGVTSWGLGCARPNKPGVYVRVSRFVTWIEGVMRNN

Row | Compound | inhibition [1] [%] | Ki (Coagulation factor X) [nM] | Ki (Serine protease hepsin) [nM] | Ki (Prothrombin) [nM] | Ki [2] [nM] | Ki [3] [nM] | Ki (Trypsin) [nM] | EC50 [4] [nM] | EC50 [5] [nM] | EC50 (PC-3 [6]) [nM] | solubility [7] [µM] | Activity [8] [%] | remaining at 40 min, 1 µM [9] [%] | Activity (PC-3 [10]) [%] | remaining at 20 min, 1 µM [11] [%] | EC50 (PC-3 [12]) [nM]
1 | N=C(N)c1ccc2[nH]c(-c3cccc(C4(F)CCCCC4)n3)cc2c1 | 11 | 700 | 400 | 3600 | 800 | 2700 | 500 | – | – | – | – | – | – | – | – | –
2 | N=C(N)c1ccc2[nH]c(-c3cccc(C4(O)CCCCC4)n3)cc2c1 | 24 | 1400 | 100 | 2100 | 2100 | 1300 | 400 | 600 | 900 | 2600 | 148 (≈ 49.5 µg/mL) | 8 | 64 | 10 | 86 | 3500
3 | N=C(N)c1ccc2[nH]ccc2c1 | – | – | 500000 | – | – | – | – | – | – | – | – | – | – | – | – | –
4 | N=C(N)c1ccc2[nH]c(-c3cccc(C4(O)CCCCC4)[n+]3[O-])cc2c1 | 11 | 8200 | 100 | 8600 | 1100 | 7800 | 800 | 500 | 600 | 1800 | 200 (≈ 70.1 µg/mL) | 1 | 99 | 8 | 100 | 2100
5 | CC(C)c1cccc(-c2cc3cc(C(=N)N)ccc3[nH]2)c1O | – | 1000 | 4900 | 1900 | 4400 | – | 800 | – | – | – | – | – | – | – | – | –
6 | N=C(N)c1ccc2[nH]c(-c3ccccc3O)nc2c1 | – | 14000 | 40000 | – | – | – | 23000 | – | – | – | – | – | – | – | – | –
7 | N=C(N)c1ccc2[nH]c(-c3cccc(N4CCCCC4)c3O)cc2c1 | – | – | 1400 | – | 500 | – | – | – | 4200 | 4900 | 126 (≈ 42.1 µg/mL) | 18 | 22 | 22 | 38 | –
8 | N=C(N)c1ccc2[nH]c(-c3cccc(N4CCCCC4)n3)cc2c1 | – | – | 600 | – | 1500 | 2300 | – | – | 2600 | 5200 | 135 (≈ 43.1 µg/mL) | 12 | 60 | 10 | 82 | –
9 | CC(C)c1cc(Cl)cc(-c2cc3cc(C(=N)N)ccc3[nH]2)c1O | 5 | – | 4800 | – | 4800 | – | – | – | – | – | – | – | – | – | – | –
10 | N=C(N)c1ccc2[nH]c(-c3ccccc3O)cc2c1 | – | – | 35000 | – | 60000 | – | 8000 | – | – | – | – | – | – | – | – | –
